The record followed here is article PMC7259601 (PLoS ONE, 2020).

Structures are written as SMILES. “And” between values parts separate entries of the source, which are not always exact repeats. Equal values may be shown once. Read-outs that look alike come from different tables or passages of the source.

Test [1] relates to FAD cofactor (in KDM1A or free). In words: KDM1A binding analysis (FAD absorbance at 450 nm). As to the method:
Analysis of binding of inhibitors to KDM1A was as previously described [22](Yang et al., 2007) with minor modifications. The binding to FAD (present in the enzyme or free) was analyzed by measuring the decrease in absorbance at 450nm in a Tecan Infinite F200 microplate reader. Briefly, KDM1A enzyme was mixed with the inhibitor (without substrate) and the absorbance at 450nm was compared with the absorbance of the KDM1A enzyme without inhibitor. The reaction is monitored during 30 min and values used to calculate Kobs.
Absorbance at 450 nm was measured as described and Kobs was calculated following the equation: […]

Another test concerns the target T1, Mouse recombinant KDM1B (Mus musculus, UniProt Q8CIG3).
T1 construct: gift: Dr. Andrea Mattevi, University of Pavia
The test is described as follows: KDM1B inhibition assay. The test is classed as biochemical. As to the method:
Mouse recombinant KDM1B protein was kindly provided by Dr. Andrea Mattevi from the University of Pavia. The biochemical activity assay was carried out at room temperature in a similar manner as for KDM1A but using 50 mM HEPES pH 8.5 as the reaction buffer, but with 10 min of incubation of KDM1B in the presence of dimethylated H3K4 peptide at the KMapp of KDM1B.

Test [2] has as its target T2, KDM1A (Homo sapiens, UniProt O60341). In words: KDM1A inhibition assay (Amplex Red, dimethylH3K4 peptide). The test is classed as biochemical. Further details: purchased BPS Bioscience 50100.
The next test has as its target T3, rKDM1A (Homo sapiens, UniProt O60341).
T3 construct: purchased BPS Bioscience 50100
The test is described as follows: Kinetics of inhibition of KDM1A. Type of test: biochemical. The settings on record: pure recombinant enzyme, H3K4me2 peptide. As to the method: Time course experiments were performed to assess the rate of inhibition of demethylation of a H3K4me2 peptide mediated by rKDM1A, monitoring the release of H2O2 produced during the reaction using a coupled horseradish peroxidase assay using Amplex Red reagent as a substrate. Conditions were the same as for IC50 determinations, but all reagents were added simultaneously.

The subject of a further test is 19 epigenetic targets. The test is described as follows: Panel of 19 epigenetic targets. Type of test: biochemical. The settings on record: 10 μM. As to the method:
[…]. MAO-A inhibition at 10 μM was 37%, in line with internal data.

For another test, the system named is SAMP8 mice. The test is described as follows: Elevated Plus Maze (EPM), SAMP8. The test is classed as in vivo, mouse. The settings on record: 0.32 or 0.96 mg/kg/day. As to the method: Both male and female mice from the senescence accelerated strain SAMP8 and its control SAMR1 of different ages (see Table S3 for details) were used in these studies. Mice were breed in the animal facilities of the Pharmacy Faculty (University of Barcelona), maintained in a at 22 ± 2 °C controlled temperature in a 12 hr light / dark cycle (lights on at 8:00 am; 300 lux/0 lux) with ad libitum access to food (2018 TEKLAD, Harlan) and water. Male mice were housed individually (males) or in groups of 4-5 animals (females) in plastic colony boxes with a sawdust bedding material. […] SAMR1 mice treated with vehicle were included as a control. […] Drug concentration was calculated weekly in function of body weight and corrected in function of drinking water consumption. Cognitive function was evaluated by NORT, social behavior was evaluated by RI and anxiety and motor function were evaluated by EPM and OF. […]
The EPM consisted of four arms at right angles to each other connected to a central square and maintained elevated 50 cm above the floor. […] The animal was placed facing a closed arm, and its movements were video-recorded for 5 min and analyzed by video-tracking using SMART® (v3.0, PanLab, SLU, Spain).
Elevated Plus Maze (EPM): Movements were video-recorded for 5 min and analyzed by video-tracking using SMART® (v3.0, PanLab, SLU, Spain).

Test [3] deals with T2, KDM1A. The test is described as follows: Chemoprobe based KDM1A target engagement in THP-1 cells. Type of test: cell-based. Further details: Native protein extracts of cells or tissues were obtained in presence of 25 nM OG-881 chemoprobe; endogenous in cells; host or cells: THP-1. The settings on record: THP-1 cells treated 24 hr. As to the method:
Native protein extracts of cells or tissues were obtained in presence of 25 nM OG-881 chemoprobe according the protocol described in Mascaró et al..
Luminescent ELISA: for quantification of total amount of KDM1A protein (TOTAL KDM1A), Luminunc Plates Maxisorp (NUNC; #436110) were coated with a monoclonal anti-KDM1A antibody (Abcam; #ab53269) at 2 µg/mL in PBS. For quantification of the fraction not bound to inhibitor (FREE KDM1A), plates were coated with streptavidin (Promega Biotech Ibérica; #Z7041) at 10 µg/mL in PBS. Coating was performed at 4°C O/N. Wells were washed 3 times in PBS, 0.1% Tween-20 and blocked with PBS-BSA 1% (Sigma; #A3059) for 2 hr. A KDM1A calibration curve of full length rKDM1A (Active Motif; #31334) diluted in PBS was included in each plate. Plates were then incubated 1 hr at RT and washed 5 times. […] Plates were centrifuged during 30 sec to 1,500 x g, shaken for 1 min at 100rpm and incubated inside the micropate reader (Infinite 200, Tecan) for 3 min at 25 °C. The relative luminescence units (RLU) readouts were acquired using a 1000 msec integration time and 150 msec settle time.
All assays were run as triplicate technical replicates (n = 3). After raw data processing (robust elimination of outliers according to Grubbs criteria and subtraction of blank signal on technical replicates), the target engagement was calculated as […]

T1 sequence (Q8CIG3 whole entry): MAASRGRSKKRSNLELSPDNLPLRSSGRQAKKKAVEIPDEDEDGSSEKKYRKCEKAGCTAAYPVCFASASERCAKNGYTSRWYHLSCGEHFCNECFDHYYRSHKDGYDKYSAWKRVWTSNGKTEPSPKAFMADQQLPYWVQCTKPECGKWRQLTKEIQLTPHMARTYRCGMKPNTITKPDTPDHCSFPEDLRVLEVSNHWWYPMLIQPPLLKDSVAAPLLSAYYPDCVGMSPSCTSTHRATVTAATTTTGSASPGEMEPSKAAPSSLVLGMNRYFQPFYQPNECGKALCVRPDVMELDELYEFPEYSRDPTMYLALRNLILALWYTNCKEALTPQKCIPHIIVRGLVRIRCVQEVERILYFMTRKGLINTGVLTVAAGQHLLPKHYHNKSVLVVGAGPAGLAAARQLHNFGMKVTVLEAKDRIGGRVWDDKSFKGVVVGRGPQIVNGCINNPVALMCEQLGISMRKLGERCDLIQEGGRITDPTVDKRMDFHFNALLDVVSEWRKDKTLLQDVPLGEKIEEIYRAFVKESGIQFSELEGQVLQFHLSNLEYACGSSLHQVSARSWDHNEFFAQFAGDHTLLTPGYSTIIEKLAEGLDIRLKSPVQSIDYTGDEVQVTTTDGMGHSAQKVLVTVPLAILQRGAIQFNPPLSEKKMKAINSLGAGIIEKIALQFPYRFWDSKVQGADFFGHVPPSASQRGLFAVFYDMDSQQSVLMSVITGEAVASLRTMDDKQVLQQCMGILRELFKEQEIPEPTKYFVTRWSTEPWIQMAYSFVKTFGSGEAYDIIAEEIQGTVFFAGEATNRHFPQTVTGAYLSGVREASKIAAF

With `Nc1nnc(CN[C@@H]2C[C@H]2c2ccc(OCc3ccccc3)cc2)o1` [ORY-2001, vafidemstat], the “binding to free FAD” value in test [1] was “does not bind free FAD”. The “mode of inhibition of KDM1A (FAD cofactor)” value in test [1] (absorbance spectrum and MALDI-TOF) is on record as “covalent binding”. Besides, the inhibition at 10 µM on Mouse recombinant KDM1B stood at 7%. Besides, the IC50 was 101 ± 40 nM against KDM1A [2] (mean IC50 KDM1A, mean ± SD, minimum 2 independent experiments) and 105 nM on KDM1A [2] (rKDM1A, N = 1, n = 2, read-out: IC50 KDM1A, representative dose-response curve). For the same compound, on rKDM1A, the KI (inactivation) was found to be 1800 nM. In addition, the “% inhibition, any of 19 epigenetic targets” value in the test on 19 epigenetic targets was at most 15%. Also, in the test on SAMP8 mice, the “time in the open arms of the EPM” value is given as “not significantly modified”. Moreover, the EC50 on KDM1A [3] was ~1 nM and 1 nM.

Usually inhibition stands for the share of the control response that was lost under treatment. For orientation: IC50 means the point on the concentration scale where inhibition reaches its midpoint. As a reminder, the EC50 is the concentration that produces a half-maximal response.
